Assay results reported in ChEMBL document CHEMBL5442175, “EUbOPEN Chemogenomics Library - PDSP Secondary Binding” (2024).
Counter-ions that a name gives are not always drawn.

Tests used:
[1] = molecular target: T1, Alpha-1A adrenergic receptor (Homo sapiens, UniProt P35348); assay: (§1) PDSP Secondary Binding target: ADRA1A - Compounds are tested at 10 uM concentration, plate are incubated at room temperature in the dark for 90 minutes. Reaction are stopped by vacuum filtration onto 0.3% polyethyleneimine soaked filter mats using Filtermate harvester. Scintillation cocktail is then melted onto microwave-dried filters on a hot plate and the radio activity is counted in Microbia counter.
T1 sequence (P35348 whole entry): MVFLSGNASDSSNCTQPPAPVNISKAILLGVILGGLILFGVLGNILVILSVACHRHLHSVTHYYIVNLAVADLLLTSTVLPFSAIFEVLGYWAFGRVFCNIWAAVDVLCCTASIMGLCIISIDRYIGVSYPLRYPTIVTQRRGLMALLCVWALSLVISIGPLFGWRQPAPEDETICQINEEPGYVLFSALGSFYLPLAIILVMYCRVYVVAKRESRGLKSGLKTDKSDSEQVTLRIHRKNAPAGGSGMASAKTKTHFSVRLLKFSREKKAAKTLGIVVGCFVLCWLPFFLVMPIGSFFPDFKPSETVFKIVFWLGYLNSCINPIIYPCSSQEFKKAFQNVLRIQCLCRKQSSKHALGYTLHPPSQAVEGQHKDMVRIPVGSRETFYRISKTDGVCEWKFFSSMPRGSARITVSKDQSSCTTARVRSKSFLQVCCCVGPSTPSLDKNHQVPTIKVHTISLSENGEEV

[2] = molecular target: Sodium-dependent noradrenaline transporter (Homo sapiens, UniProt P23975); assay: as §1, with “SLC6A2” for “ADRA1A”
[3] = molecular target: T2, Alpha-2B adrenergic receptor (Homo sapiens, UniProt P18089); assay: as §1, with “ADRA2B” for “ADRA1A”
T2 sequence (P18089 whole entry): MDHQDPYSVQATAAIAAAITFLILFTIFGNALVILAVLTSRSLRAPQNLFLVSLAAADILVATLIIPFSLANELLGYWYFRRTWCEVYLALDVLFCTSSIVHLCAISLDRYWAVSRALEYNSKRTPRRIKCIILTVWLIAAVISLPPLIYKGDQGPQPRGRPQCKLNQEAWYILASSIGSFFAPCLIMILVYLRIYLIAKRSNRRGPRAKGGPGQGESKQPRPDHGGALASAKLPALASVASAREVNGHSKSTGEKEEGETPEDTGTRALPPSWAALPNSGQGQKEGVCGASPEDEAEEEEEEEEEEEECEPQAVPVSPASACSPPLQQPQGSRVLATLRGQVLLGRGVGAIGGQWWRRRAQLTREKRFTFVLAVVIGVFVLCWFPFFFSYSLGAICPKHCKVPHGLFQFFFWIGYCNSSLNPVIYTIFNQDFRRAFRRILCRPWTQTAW

[4] = molecular target: T3, Alpha-2C adrenergic receptor (Homo sapiens, UniProt P18825); assay: as §1, with “ADRA2C” for “ADRA1A”
T3 sequence (P18825 whole entry): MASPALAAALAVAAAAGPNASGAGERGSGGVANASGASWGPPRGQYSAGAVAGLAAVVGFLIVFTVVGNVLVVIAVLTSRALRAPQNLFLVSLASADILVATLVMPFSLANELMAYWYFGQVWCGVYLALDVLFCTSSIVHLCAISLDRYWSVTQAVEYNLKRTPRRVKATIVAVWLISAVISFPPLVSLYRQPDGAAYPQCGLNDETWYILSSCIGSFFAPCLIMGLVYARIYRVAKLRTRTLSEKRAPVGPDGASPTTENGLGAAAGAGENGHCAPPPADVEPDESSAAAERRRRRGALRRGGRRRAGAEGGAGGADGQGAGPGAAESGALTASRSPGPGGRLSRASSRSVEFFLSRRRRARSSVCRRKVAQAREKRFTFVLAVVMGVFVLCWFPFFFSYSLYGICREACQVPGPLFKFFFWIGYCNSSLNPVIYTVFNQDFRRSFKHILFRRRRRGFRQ

[5] = molecular target: 5-hydroxytryptamine receptor 7 (Homo sapiens, UniProt P34969); assay: as §1, with “HTR7” for “ADRA1A”
[6] = molecular target: T4, Alpha-1B adrenergic receptor (Homo sapiens, UniProt P35368); assay: as §1, with “ADRA1B” for “ADRA1A”
T4 sequence (P35368 whole entry): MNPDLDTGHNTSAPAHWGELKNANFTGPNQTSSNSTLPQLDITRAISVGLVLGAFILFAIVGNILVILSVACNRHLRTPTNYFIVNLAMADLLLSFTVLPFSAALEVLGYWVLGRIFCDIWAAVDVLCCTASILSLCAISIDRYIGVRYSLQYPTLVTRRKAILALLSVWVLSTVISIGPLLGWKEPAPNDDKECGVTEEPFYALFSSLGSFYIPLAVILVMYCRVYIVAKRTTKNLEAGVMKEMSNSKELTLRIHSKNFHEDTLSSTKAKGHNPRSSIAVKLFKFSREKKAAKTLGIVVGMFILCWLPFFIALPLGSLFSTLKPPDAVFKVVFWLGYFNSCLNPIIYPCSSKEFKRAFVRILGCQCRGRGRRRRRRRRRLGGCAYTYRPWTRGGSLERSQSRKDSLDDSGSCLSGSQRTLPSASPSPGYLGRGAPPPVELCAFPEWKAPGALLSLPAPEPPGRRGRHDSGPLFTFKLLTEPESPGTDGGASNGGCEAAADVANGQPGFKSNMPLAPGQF

[7] = molecular target: Sodium-dependent serotonin transporter (Homo sapiens, UniProt P31645); assay: as §1, with “SLC6A4” for “ADRA1A”
[8] = molecular target: Beta-3 adrenergic receptor (Homo sapiens, UniProt P13945); assay: as §1, with “ADRB3” for “ADRA1A”
[9] = molecular target: T5, Alpha-1D adrenergic receptor (Homo sapiens, UniProt P25100); assay: as §1, with “ADRA1D” for “ADRA1A”
T5 sequence (P25100 whole entry): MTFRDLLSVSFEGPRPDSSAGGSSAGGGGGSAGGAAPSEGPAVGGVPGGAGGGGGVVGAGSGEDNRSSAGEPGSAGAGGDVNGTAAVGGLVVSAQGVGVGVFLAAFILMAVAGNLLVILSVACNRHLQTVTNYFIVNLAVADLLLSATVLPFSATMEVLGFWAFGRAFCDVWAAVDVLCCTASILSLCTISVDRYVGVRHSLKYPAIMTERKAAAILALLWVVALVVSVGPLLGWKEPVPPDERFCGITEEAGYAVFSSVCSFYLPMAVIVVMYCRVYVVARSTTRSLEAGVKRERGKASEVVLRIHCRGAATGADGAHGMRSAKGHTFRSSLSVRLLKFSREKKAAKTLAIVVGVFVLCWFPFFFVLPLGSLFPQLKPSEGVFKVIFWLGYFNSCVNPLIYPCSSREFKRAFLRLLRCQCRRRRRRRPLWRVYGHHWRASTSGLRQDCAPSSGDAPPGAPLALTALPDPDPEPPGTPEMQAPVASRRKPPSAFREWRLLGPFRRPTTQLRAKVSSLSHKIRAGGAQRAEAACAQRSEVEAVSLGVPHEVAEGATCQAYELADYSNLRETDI

[10] = molecular target: T6, Muscarinic acetylcholine receptor M5 (Homo sapiens, UniProt P08912); assay: as §1, with “CHRM5” for “ADRA1A”
T6 sequence (P08912 whole entry): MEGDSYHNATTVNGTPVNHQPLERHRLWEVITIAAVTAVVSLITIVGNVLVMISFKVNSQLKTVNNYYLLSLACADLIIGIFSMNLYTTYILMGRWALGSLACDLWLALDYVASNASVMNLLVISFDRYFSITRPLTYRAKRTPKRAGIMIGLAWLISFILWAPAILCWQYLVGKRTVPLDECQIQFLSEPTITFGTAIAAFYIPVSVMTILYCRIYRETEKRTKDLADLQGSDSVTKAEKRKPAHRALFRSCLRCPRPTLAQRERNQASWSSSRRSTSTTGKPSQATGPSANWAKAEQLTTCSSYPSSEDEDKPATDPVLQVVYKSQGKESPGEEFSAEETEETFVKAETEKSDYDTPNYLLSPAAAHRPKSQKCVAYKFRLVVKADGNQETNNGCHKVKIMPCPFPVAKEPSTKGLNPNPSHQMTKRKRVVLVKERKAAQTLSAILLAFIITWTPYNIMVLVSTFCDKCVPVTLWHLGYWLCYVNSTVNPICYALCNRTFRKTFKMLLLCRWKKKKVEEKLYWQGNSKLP

[11] = molecular target: T7, 5-hydroxytryptamine receptor 1A (Homo sapiens, UniProt P08908); assay: as §1, with “HTR1A” for “ADRA1A”
T7 sequence (P08908 whole entry): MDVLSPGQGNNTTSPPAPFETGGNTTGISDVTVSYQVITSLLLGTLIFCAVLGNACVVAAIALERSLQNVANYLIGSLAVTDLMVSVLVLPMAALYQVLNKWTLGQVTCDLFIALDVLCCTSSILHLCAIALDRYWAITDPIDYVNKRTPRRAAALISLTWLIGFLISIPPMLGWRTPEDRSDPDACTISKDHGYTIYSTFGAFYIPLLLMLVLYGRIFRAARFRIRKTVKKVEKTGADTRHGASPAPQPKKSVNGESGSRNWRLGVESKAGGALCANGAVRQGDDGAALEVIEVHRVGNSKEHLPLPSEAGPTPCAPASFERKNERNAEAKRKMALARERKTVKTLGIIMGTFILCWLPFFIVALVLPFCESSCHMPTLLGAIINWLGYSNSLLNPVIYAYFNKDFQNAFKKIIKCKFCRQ

Translocator protein = Translocator protein (Homo sapiens, UniProt P30536); assay: as §1, with “TSPO” for “ADRA1A”
[12] = molecular target: Sigma non-opioid intracellular receptor 1 (Homo sapiens, UniProt Q99720); assay: as §1, with “SIGMAR1” for “ADRA1A”
D(3) dopamine receptor = D(3) dopamine receptor (Homo sapiens, UniProt P35462); assay: as §1, with “DRD3” for “ADRA1A”
[13] = molecular target: Sigma intracellular receptor 2 (Homo sapiens, UniProt Q5BJF2); assay: as §1, with “TMEM97” for “ADRA1A”
[14] = molecular target: Kappa-type opioid receptor (Homo sapiens, UniProt P41145); assay: as §1, with “OPRK1” for “ADRA1A”
Mu-type opioid receptor = Mu-type opioid receptor (Homo sapiens, UniProt P35372); assay: as §1, with “OPRM1” for “ADRA1A”
Chain of Mu-type opioid receptor (P35372 whole entry): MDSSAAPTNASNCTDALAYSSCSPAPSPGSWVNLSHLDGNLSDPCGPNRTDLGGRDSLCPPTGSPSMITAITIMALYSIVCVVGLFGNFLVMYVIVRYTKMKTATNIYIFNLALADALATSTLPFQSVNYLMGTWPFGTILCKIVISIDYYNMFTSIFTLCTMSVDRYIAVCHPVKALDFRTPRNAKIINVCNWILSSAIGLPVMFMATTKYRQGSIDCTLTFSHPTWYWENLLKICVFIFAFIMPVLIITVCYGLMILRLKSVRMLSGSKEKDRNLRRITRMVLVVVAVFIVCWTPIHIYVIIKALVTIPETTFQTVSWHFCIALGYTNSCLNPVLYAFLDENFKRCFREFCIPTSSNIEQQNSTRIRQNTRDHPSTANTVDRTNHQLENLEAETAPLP

Chain of Beta-3 adrenergic receptor (P13945 whole entry): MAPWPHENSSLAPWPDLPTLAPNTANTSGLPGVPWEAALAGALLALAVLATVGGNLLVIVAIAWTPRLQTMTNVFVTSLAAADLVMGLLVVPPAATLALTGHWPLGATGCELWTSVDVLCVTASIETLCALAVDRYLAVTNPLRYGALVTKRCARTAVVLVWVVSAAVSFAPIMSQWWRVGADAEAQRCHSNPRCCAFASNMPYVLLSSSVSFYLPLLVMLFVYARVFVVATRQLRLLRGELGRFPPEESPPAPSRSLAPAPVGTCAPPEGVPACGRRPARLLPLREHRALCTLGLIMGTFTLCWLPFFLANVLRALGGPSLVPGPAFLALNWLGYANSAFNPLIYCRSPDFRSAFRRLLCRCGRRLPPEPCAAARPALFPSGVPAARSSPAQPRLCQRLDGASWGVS
Chain of Sodium-dependent serotonin transporter (P31645 whole entry): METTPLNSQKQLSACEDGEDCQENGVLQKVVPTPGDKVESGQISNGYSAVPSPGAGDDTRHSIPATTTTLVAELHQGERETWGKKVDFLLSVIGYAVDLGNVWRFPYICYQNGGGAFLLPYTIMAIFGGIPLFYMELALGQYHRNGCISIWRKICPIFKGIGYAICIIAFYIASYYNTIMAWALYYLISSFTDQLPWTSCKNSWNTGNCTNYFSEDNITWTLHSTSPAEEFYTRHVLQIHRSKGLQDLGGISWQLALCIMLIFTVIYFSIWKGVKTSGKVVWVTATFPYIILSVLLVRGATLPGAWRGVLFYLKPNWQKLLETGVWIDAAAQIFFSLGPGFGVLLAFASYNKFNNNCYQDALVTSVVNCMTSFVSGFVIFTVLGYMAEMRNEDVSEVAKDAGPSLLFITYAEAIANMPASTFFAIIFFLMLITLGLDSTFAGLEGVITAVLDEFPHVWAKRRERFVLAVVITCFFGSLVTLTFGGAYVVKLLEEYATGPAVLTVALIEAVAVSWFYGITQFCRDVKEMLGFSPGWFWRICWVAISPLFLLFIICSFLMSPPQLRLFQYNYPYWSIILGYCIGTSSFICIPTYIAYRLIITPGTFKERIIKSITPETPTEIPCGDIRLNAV
Chain of Sodium-dependent noradrenaline transporter (P23975 whole entry): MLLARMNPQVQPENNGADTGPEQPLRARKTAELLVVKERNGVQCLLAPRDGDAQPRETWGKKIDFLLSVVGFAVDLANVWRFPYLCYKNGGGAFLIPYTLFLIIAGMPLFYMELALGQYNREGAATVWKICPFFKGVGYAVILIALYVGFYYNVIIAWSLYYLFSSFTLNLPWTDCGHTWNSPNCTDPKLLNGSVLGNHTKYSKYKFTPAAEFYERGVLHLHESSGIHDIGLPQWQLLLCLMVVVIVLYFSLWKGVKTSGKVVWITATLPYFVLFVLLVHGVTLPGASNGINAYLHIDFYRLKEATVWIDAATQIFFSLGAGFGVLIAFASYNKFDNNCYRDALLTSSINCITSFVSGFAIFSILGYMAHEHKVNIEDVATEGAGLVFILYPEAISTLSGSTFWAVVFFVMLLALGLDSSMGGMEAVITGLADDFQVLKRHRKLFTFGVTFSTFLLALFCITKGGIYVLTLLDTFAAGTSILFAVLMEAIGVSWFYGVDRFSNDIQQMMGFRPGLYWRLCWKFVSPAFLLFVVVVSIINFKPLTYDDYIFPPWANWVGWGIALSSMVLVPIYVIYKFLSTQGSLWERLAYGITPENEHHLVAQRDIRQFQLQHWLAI
Chain of Sigma intracellular receptor 2 (Q5BJF2 whole entry): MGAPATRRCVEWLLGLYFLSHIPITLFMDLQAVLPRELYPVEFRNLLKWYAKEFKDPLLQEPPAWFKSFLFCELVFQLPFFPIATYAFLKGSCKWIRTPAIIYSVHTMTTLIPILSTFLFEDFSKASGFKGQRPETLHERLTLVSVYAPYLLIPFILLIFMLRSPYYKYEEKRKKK
Chain of Translocator protein (P30536 whole entry): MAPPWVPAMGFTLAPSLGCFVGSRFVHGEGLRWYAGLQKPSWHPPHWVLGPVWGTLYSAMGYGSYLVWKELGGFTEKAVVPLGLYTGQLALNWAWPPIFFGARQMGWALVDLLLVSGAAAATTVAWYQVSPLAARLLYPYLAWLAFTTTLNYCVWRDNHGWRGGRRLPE
Chain of Sigma non-opioid intracellular receptor 1 (Q99720 whole entry): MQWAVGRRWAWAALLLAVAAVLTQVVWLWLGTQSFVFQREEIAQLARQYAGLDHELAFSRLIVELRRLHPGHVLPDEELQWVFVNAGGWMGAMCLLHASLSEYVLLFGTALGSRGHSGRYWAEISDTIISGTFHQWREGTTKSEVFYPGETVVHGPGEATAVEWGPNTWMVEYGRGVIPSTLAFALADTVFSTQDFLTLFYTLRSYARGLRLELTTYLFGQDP
Chain of 5-hydroxytryptamine receptor 7 (P34969 whole entry): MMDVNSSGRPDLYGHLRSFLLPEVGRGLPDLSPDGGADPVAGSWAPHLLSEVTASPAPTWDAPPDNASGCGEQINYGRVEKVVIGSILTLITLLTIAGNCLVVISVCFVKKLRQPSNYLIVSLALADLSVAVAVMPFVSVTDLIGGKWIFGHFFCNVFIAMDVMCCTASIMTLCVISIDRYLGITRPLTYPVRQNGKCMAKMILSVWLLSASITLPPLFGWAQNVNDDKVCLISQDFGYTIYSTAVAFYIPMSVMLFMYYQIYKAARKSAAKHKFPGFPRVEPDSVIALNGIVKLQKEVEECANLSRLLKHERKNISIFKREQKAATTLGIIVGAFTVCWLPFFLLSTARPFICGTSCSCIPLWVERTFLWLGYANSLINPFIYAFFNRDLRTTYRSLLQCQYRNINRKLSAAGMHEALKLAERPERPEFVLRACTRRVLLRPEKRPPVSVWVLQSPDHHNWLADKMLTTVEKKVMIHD
Chain of Kappa-type opioid receptor (P41145 whole entry): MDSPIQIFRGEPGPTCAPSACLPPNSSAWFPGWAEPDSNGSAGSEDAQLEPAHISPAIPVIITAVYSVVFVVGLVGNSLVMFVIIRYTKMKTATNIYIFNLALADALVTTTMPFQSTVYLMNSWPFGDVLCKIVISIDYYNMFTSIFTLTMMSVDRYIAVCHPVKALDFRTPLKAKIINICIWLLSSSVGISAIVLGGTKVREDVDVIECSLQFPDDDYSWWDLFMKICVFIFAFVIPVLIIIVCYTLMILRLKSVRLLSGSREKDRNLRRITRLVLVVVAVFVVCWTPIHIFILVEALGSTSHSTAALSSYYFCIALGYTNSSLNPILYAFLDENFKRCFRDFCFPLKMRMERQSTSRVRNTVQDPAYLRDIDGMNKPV
Chain of D(3) dopamine receptor (P35462 whole entry): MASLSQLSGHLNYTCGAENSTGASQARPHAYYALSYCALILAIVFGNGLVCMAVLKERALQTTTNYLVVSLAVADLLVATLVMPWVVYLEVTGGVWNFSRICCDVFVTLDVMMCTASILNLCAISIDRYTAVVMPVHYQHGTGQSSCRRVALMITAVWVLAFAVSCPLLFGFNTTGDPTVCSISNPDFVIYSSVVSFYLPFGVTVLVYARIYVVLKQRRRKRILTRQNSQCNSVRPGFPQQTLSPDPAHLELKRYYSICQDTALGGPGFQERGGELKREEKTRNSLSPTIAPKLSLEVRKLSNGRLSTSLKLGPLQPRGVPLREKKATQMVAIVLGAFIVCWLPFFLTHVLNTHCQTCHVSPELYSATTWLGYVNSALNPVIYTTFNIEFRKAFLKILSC

In the case of `Cc1cccc([C@H](C)c2cnc[nH]2)c1C` [DEXMEDETOMIDINE HYDROCHLORIDE], the Ki [1] is reported as 749 nM, the Ki [2] is reported as 3260 nM and the Ki [3] is reported as 12.1 nM. The Ki [4] was 39.4 nM, the Ki [5] was 923 nM and the Ki [6] was 2980 nM.
With `Cc1c(OCc2cccc(-c3ccc(C(=O)O)cc3)c2)cc2c(c1C)C(=O)C(C1CCCC1)C2` (stereo not given) the Ki [7] was over 10000 nM, the Ki [8] was 5050 nM and the Ki [9] was over 10000 nM. The Ki [6] was over 10000 nM.
`COc1ccnc(N2CCC3(CCCN(Cc4c[nH]c5ccccc45)C3=O)CC2)n1` was tested, and the Ki [10] was over 10000 nM, the Ki [11] was 3260 nM and the Ki (Translocator protein) was 803 nM.
With `Cc1csc2c(N[C@@H](C)CN3CCN(S(=O)(=O)c4ccc(Cl)c(Cl)c4)CC3)ncnc12` the Ki [12] was 958 nM, the Ki [8] was 8880 nM and the Ki (D(3) dopamine receptor) was 581 nM. It also gave a Ki (Translocator protein) of 799 nM, a Ki [13] of 2000 nM and a Ki [14] of 494 nM.
Work on `C[C@@H](NCCc1ccc(O)cc1)[C@@H](O)c1ccc(O)cc1` (relative stereo) yielded a Ki [2] of 2580 nM, a Ki [12] of 587 nM and a Ki [7] of 4050 nM. For the same compound, the Ki [8] was 3730 nM, the Ki (Mu-type opioid receptor) was 7850 nM and the Ki [13] was 2670 nM.
